Article PMC12024814, “Ruthenium(II)–Arene Complexes with a 2,2′-Bipyridine Ligand as Anti-Aβ Agents” (Biomolecules, 2025)

System: pheochromocytoma cells (PC-12)
Experiment: MTT cell viability assay, PC-12 cells
Type: cell-based, Rattus norvegicus
Settings: 24 h
Description: Cultures of adherent Rattus norvegicus pheochromocytoma cells (PC-12; ATCC CRL-1721) and axenic Rattus norvegicus C6 glioma cells (ATTC CCL-107) were prepared as previously reported. The cells were cultured using Dulbecco’s Modified Eagle’s medium with low glucose, sodium pyruvate, and without phenol red or L-glutamine (DMEM REF:11054-020; GIBCO; Waltham, MA, USA) and supplemented with 1.5% (v/v) heat-inactivated fetal bovine serum (GIBCO; Waltham, MA, USA), 10% (v/v) sterile filtered horse serum (Sigma-Aldrich, St. Louis, MO, USA), and 4% sterile L-glutamine (Sigma-Aldrich; St. Louis, MO, USA). […]
For the viability assays, both cell types were grown to confluency before being trypsinized, resuspended in 1 mL of complete medium per confluent well of a 6-well plate, diluted ten-fold, and then counted with a Scepter 2.0 Handheld Automated Cell Counter (Millipore, Burlington, MA, USA) affixed with a 60 µm sensor. […]
To assess the viability of the cells with and without Ru additions, cell viability tests were performed using an MTT assay following the procedure of Mosmann with the following variations: Before adding the MTT reagent (5 mg/mL water), 90 µL of the complete medium was removed from each well, and 90 µL of incomplete medium was added. […] The absorbance values were recorded using a Bio-Rad® Microplate Reader Benchmark at 595 nm. […]

## [Ru(η^6-p-cymene)(4,4′-di-tert-butyl-2,2′-bipyridine)Cl]PF6 [RuBtB]
20 and 40 µM
  toxicity (MTT): substantial toxicity
Tested 0.2–40 µM
  IC50 (cell viability): below the concentrations evaluated
